The source of these data is PubChem BioAssay (NCI).

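Exposure lasted 48 hours, with cells grown in 96-well plates and compounds tested at five concentrations. The concentration for 50% growth inhibition is given as GI50. TGI is the concentration that stops growth completely.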

Among the test systems are BT-549 breast; NCI/ADR-RES ovarian; SF-539 CNS; RPMI-8226 leukemia; SK-OV-3 ovarian; MDA-N; CAKI-1 renal; NCI-H23 lung; SK-MEL-2 melanoma; RXF 393 renal; SW-620 colon; OVCAR-4 ovarian; TK-10 renal; MDA-MB-435; MALME-3M melanoma; OVCAR-3 ovarian.
Holding throughout (assay): NCI anticancer screen, dose series, 48 h

`CN(C)c1nc(-c2ccccc2)c(C(=O)c2c[nH]c3ccccc23)s1`: the TGI was greater than 100 µM in the assay with BT-549 breast; greater than 100 µM in the assay with NCI/ADR-RES ovarian; greater than 100 µM in the assay on SF-539 CNS; 32 µM in the assay on RPMI-8226 leukemia; greater than 100 µM in the assay on SK-OV-3 ovarian; 20.2 µM in the assay on MDA-N. The TGI is greater than 100 µM with CAKI-1 renal; greater than 100 µM with NCI-H23 lung; greater than 100 µM in the assay on SK-MEL-2 melanoma; greater than 91.5 µM in the assay with RXF 393 renal; greater than 100 µM in the assay with SW-620 colon; greater than 100 µM in the assay with OVCAR-4 ovarian. The TGI in the assay on TK-10 renal was greater than 76.3 µM; in the assay with MDA-MB-435, greater than 31.1 µM; in the assay with MALME-3M melanoma it was greater than 100 µM; in the assay with OVCAR-3 ovarian it was greater than 94.4 µM.
Turning to `C=C1c2nc3ccccc3n2C=C(c2ccccc2)N1c1ccccc1`, the TGI was 98.5 µM in the assay with BT-549 breast; greater than 100 µM in the assay on NCI/ADR-RES ovarian; greater than 100 µM in the assay on SF-539 CNS; greater than 100 µM with RPMI-8226 leukemia; greater than 100 µM in the assay with SK-OV-3 ovarian; greater than 100 µM with MDA-N. Moreover, the TGI in the assay with CAKI-1 renal, in the assay on NCI-H23 lung, in the assay with SK-MEL-2 melanoma, in the assay with RXF 393 renal, with SW-620 colon and in the assay on OVCAR-4 ovarian was greater than 100 µM each time. Further, the TGI in the assay with TK-10 renal, in the assay on MDA-MB-435, with MALME-3M melanoma and in the assay on OVCAR-3 ovarian was greater than 100 µM each time.
As to `CC(C)n1c2c([n+](C)c1/C=C/c1ccccc1)C(=O)c1ccccc1C2=O`, the TGI with BT-549 breast is 0.667 µM; in the assay with NCI/ADR-RES ovarian, greater than 100 µM; in the assay on SF-539 CNS, 0.363 µM; with RPMI-8226 leukemia, 8.96 µM; with SK-OV-3 ovarian, 1.07 µM; with MDA-N, 0.686 µM. The TGI was determined as 12.4 µM in the assay with CAKI-1 renal; 0.412 µM in the assay on NCI-H23 lung; 0.48 µM with SK-MEL-2 melanoma; 2.19 µM in the assay with RXF 393 renal; 1.21 µM in the assay on SW-620 colon; 1 µM in the assay with OVCAR-4 ovarian. In addition, the TGI with TK-10 renal amounted to 2.39 µM; with MDA-MB-435, 0.547 µM; in the assay on MALME-3M melanoma it was 0.248 µM; in the assay on OVCAR-3 ovarian, 0.0289 µM.
Regarding `c1ccc(/N=N/Nc2ccc(-c3nc4ccccc4[nH]3)cc2)nc1`, the TGI in the assay on BT-549 breast is greater than 100 µM; in the assay with NCI/ADR-RES ovarian, greater than 100 µM; with SF-539 CNS, 31.3 µM; in the assay with RPMI-8226 leukemia it was 11.6 µM; in the assay with SK-OV-3 ovarian, 27.9 µM; in the assay with MDA-N, 34.7 µM. In addition, the TGI in the assay with CAKI-1 renal was determined as 61.3 µM; in the assay on NCI-H23 lung, 95.8 µM; with SK-MEL-2 melanoma, 62.5 µM; in the assay on RXF 393 renal, 32.5 µM; in the assay on SW-620 colon, 71.5 µM; in the assay on OVCAR-4 ovarian, 35.8 µM. Also, the TGI in the assay on TK-10 renal is 35.6 µM; in the assay with MDA-MB-435 it was 45.7 µM; in the assay on MALME-3M melanoma it was 29.2 µM; in the assay on OVCAR-3 ovarian, 28.2 µM.
With `CCOC(=O)CCC(NC(=O)c1ccc(Nc2nc3ccccc3nc2-c2cccs2)cc1)C(=O)OCC` (stereo not given), the TGI with BT-549 breast, in the assay with NCI/ADR-RES ovarian, in the assay with SF-539 CNS, in the assay on RPMI-8226 leukemia, in the assay on SK-OV-3 ovarian and with MDA-N was greater than 100 µM each time. In addition, the TGI is greater than 100 µM with CAKI-1 renal; greater than 100 µM with NCI-H23 lung; 94.5 µM in the assay with SK-MEL-2 melanoma; greater than 100 µM with RXF 393 renal; greater than 100 µM with SW-620 colon; greater than 100 µM with OVCAR-4 ovarian. For the same compound, the TGI in the assay on TK-10 renal, with MDA-MB-435, in the assay on MALME-3M melanoma and in the assay with OVCAR-3 ovarian was greater than 100 µM in each case.
Take `COC(=O)C1(Cc2ccccc2)Cc2ccc3c(c2C1=O)CCC3` (stereo not given): the TGI with BT-549 breast was greater than 87.7 µM; in the assay on NCI/ADR-RES ovarian, greater than 100 µM; in the assay on SF-539 CNS it was greater than 76.9 µM; in the assay on RPMI-8226 leukemia it was greater than 90.3 µM; in the assay with SK-OV-3 ovarian, greater than 100 µM; in the assay with MDA-N, greater than 86.4 µM. Further, the TGI in the assay on CAKI-1 renal is greater than 100 µM; with NCI-H23 lung it was greater than 78.6 µM; in the assay on SK-MEL-2 melanoma it was 41.5 µM; with RXF 393 renal it was greater than 69.5 µM; in the assay with SW-620 colon, greater than 100 µM; with OVCAR-4 ovarian, greater than 92.8 µM. The TGI with TK-10 renal was greater than 84 µM; with MDA-MB-435, greater than 77.9 µM; with MALME-3M melanoma, 25.4 µM; in the assay with OVCAR-3 ovarian it was greater than 100 µM.
With `O=c1oc2ccc3ccccc3c2cc1-c1nc2ccccc2o1`, the TGI with BT-549 breast was greater than 61.4 µM; in the assay on NCI/ADR-RES ovarian it was 51.7 µM; with SF-539 CNS it was 29.3 µM; in the assay with RPMI-8226 leukemia, greater than 63.4 µM; in the assay on SK-OV-3 ovarian, greater than 54.4 µM; in the assay on MDA-N, greater than 54.4 µM. In addition, the TGI with CAKI-1 renal was 40.8 µM; in the assay on NCI-H23 lung, greater than 63.3 µM; in the assay with SK-MEL-2 melanoma, 60.1 µM; in the assay on RXF 393 renal it was 34.4 µM; in the assay with SW-620 colon it was 55.1 µM; with OVCAR-4 ovarian, 90.4 µM. Further, the TGI with TK-10 renal was greater than 100 µM; in the assay with MDA-MB-435, greater than 60.6 µM; in the assay on MALME-3M melanoma it was 26.5 µM; in the assay on OVCAR-3 ovarian, 32.4 µM.
Turning to `O=C(Cc1ccc(Cl)c(Cl)c1)N(CCc1ccc(Cl)c(Cl)c1)CCN1CCCC1`, the TGI turned out to be 7.04 µM in the assay with BT-549 breast; 4.73 µM in the assay with NCI/ADR-RES ovarian; 3.31 µM with SF-539 CNS; 3.62 µM in the assay with RPMI-8226 leukemia; 7.49 µM with SK-OV-3 ovarian; 3.15 µM in the assay with MDA-N. Moreover, the TGI with CAKI-1 renal stood at 3.1 µM; in the assay with NCI-H23 lung it was 3.95 µM; with SK-MEL-2 melanoma it was 3.36 µM; with RXF 393 renal, 3.34 µM; in the assay with OVCAR-4 ovarian it was 5.28 µM; with TK-10 renal it was 3.22 µM. Besides, the TGI is 3.38 µM in the assay with MDA-MB-435, 3.16 µM in the assay on MALME-3M melanoma and 5.47 µM in the assay with OVCAR-3 ovarian.
Consider `O=[N+]([O-])O.[Ga]`, for which the TGI was greater than 4640 µM in the assay with BT-549 breast; greater than 10000 µM in the assay on NCI/ADR-RES ovarian; greater than 10000 µM in the assay with SF-539 CNS; 2270 µM in the assay on RPMI-8226 leukemia; 390 µM with SK-OV-3 ovarian; greater than 10000 µM with MDA-N. Also, the TGI in the assay with CAKI-1 renal is greater than 9820 µM; in the assay on NCI-H23 lung, greater than 10000 µM; in the assay on SK-MEL-2 melanoma it was 3270 µM; with RXF 393 renal, greater than 9480 µM; with SW-620 colon it was greater than 10000 µM; with OVCAR-4 ovarian, 5040 µM. Further, the TGI was greater than 7990 µM in the assay with TK-10 renal, greater than 10000 µM in the assay with MDA-MB-435, 1320 µM in the assay with MALME-3M melanoma and 6920 µM in the assay with OVCAR-3 ovarian. Moreover, the values for the GI50 in the assay on NCI-H23 lung and with SK-MEL-2 melanoma were 1260 µM and 325 µM, respectively.
